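Grown in 96-well plates, cells were treated for 48 hours with each compound at five concentrations. Insufficient inhibition: endpoint recorded as highest concentration tested. GI50 is the concentration that inhibits growth by half. TGI denotes the concentration required for complete inhibition of growth.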
Tests used:
Assay in all cases: inhibition of tumour cell growth, NCI panel, 48 h
[1] = system: DMS 273 small cell lung
[2] = system: SNB-78 CNS
[3] = system: NCI/ADR-RES ovarian
[4] = system: T-47D breast
[5] = system: MDA-N
[6] = system: HS 578T breast
[7] = system: MCF7 breast
[8] = system: RXF-631 renal
[9] = system: M19-MEL melanoma

Structure (SMILES) | TGI [1] [µM] | TGI [2] [µM] | TGI [3] [µM] | GI50 [4] [µM] | TGI [4] [µM] | TGI [6] [µM] | TGI [7] [µM] | TGI [8] [µM] | TGI [9] [µM] | GI50 [3] [µM] | GI50 [6] [µM] | GI50 [7] [µM] | other results
O=C(CCC(=O)Nc1ccc(Cl)cc1)CC(=O)c1ccc(F)cc1 | > 100 | > 100 |  |  |  |  |  |  |  |  |  |  | 
[Cu+2].[O-]c1ccc2ccccc2c1N=Nc1ccccc1.[O-]c1ccc2ccccc2c1N=Nc1ccccc1 |  |  | > 100 | > 100 | > 100 | > 100 | > 100 |  |  |  |  |  | TGI [5]: > 100 µM
Cc1ccc(NC(=O)/C(CC(=O)c2c[n+](=O)c3ccccc3n2O)=N\NC(=O)C[n+]2ccccc2)cc1 | > 100 | > 100 |  |  |  |  |  | > 100 | > 100 |  |  |  | 
COc1cccc(/C=N\Nc2ccc([N+](=O)[O-])cn2)c1O |  |  | 28 | 3.83 | 89.1 | > 100 | 71.1 |  |  | 2.43 | 4.52 | 3.18 | 
COc1ccc(O)c(C(=O)c2ccc(C(=O)O[C@@H]3CCCNC[C@H]3NC(=O)c3ccncc3)cc2)c1F |  |  | 24.2 | 1.36 | > 25 | > 25 | > 25 |  |  | 1.87 | 0.174 | 0.275 | 
COc1ccc(C(O)CNC(=O)c2ccccc2)cc1 (stereo not given) |  |  | > 100 |  | > 100 | > 100 | > 100 |  |  |  |  |  | TGI [5]: > 100 µM
CCN(CC)CCOc1ccc(/C=C2\CC3C4CCC5=CC(=O)CC[C@]5(C)C4CC[C@]3(C)C2=O)cc1OC (stereo not given in full) |  |  | 13 | 3.14 | 17.1 | 17.3 | 13.7 |  |  | 3.22 | 2.45 | 3.02 | 
CCCN(CCC)c1ccc(CO)c(C)c1 |  |  | > 100 | 13.9 | 33.5 | > 100 | > 100 |  |  | > 100 | 42.2 | > 100 | 
COc1ccc2c3c1C(=O)CCC3CO2 (stereo not given) | > 100 | > 100 |  |  |  |  |  | > 100 | > 100 |  |  |  | 
CC(=O)OC12c3ccccc3C1CCCCCC21OCCCO1 (stereo not given) | > 100 | > 100 |  |  |  |  |  |  | > 100 |  |  |  | 
CC(=O)N1CC2Nc3ccccc3C2CC1CO (stereo not given) | > 100 | > 100 |  |  |  |  |  | > 100 | > 100 |  |  |  | 
N=C(c1ccccc1)N(O)C1CCCCC1 | > 100 | > 100 |  |  |  |  |  |  | > 100 |  |  |  | 
CC(ONC(=O)c1cc(C(F)(F)F)cc(C(F)(F)F)c1)C(=O)Nc1ccc(Cl)cc1 (stereo not given) |  |  | 41.6 | 3.78 | > 60.8 | 42.4 | 16.5 |  |  | 6.2 | 5.43 | 3.38 | 
O=c1ccccc2cccc(O)c12 | > 100 | > 100 |  |  |  |  |  | > 100 | > 100 |  |  |  | 
O=C(COc1cccc(/C=C2\COc3ccccc3C2=O)c1)Nc1nccs1 |  |  | 21.8 | 3.13 | 12.5 | 10.9 | 5.69 |  |  | 4.97 | 2.67 | 1.24 | 
O=c1cc(Cl)nc[nH]1 | > 100 | > 100 |  |  |  |  |  | > 100 | > 100 |  |  |  | 
O=C(OCCOCBr)c1ccccc1 | > 100 | > 100 |  |  |  |  |  | > 100 |  |  |  |  | 
Cc1cc(NS(=O)(=O)c2ccc(NC(=O)c3cccc4c(N)c5ccccc5nc34)cc2)no1 | 49 | 71.1 |  |  |  |  |  | 38.7 | 42.1 |  |  |  | 
COC(OC)c1cccc2c1C1(O)CCC3(CC21)OCCCCO3 (stereo not given) | > 100 | > 100 |  |  |  |  |  |  | > 100 |  |  |  | 
COc1ccc2c(c1)c(C1(c3cn(C)c4ccc(OC)cc34)C(=O)Nc3ccc(F)cc31)cn2C |  |  | > 100 | 4.75 | > 100 | > 100 | > 100 |  |  | 4.66 | 9.01 | 3.61 | 
O=S1(=O)CCN(Cc2ccccn2)CC1 |  |  | > 100 |  | > 100 | > 100 | > 100 |  |  |  |  |  | TGI [5]: > 100 µM
CN(C)CCn1c2ccccc2c2nc3cc4ccccc4cc3nc21 | 14.6 |  |  |  |  |  |  |  | 21 |  |  |  | 
O=c1[nH]c(Br)nc2c(Br)c[nH]c12 | > 100 | > 100 |  |  |  |  |  | > 100 | > 100 |  |  |  | 
CC(=O)/C=C/C1=C(c2cc3ccccc3s2)c2ccccc2CC1 |  |  | > 100 | 8.58 | > 100 | > 100 | > 100 |  |  | 30.9 | 52.5 | 5.27 | 
CCC[CH2][Sn]([CH2]CCC)([O]C(=O)c1cccc(F)c1)[O]C(=O)c1cccc(F)c1 | 3.4 | 2.27 |  |  |  |  |  | 0.486 | 1.93 |  |  |  | GI50 [8]: 0.209 µM; GI50 [1]: 1.39 µM; GI50 [2]: 0.702 µM; GI50 [9]: 0.575 µM
Cn1c(COC(=O)N2CCCCC2)nc2c(N3CCOCC3)nc(-c3ccccc3)nc21 |  |  | 5.72 | 1.47 | 3.91 | 2.91 | 1.79 |  |  | 1.67 | 0.698 | 0.378 | 
